What all share (assay type): cell-based, mouse
Assay [1] concerns β-galactosidase in CMV-LacZ C2C12 myoblasts. The assay is described as follows: CMV-LacZ secondary screen in C2C12 myoblasts (β-Gal stabilizing assay). The following applies: for CMV-LACZ in Myoblasts, value relative to DMSO: SU9516 analogs, C2C12 CMV-LacZ, N=2; for CMV-LACZ in Myoblasts (β-galactosidase activity relative to DMSO): CMV-LacZ C2C12 myoblasts. In outline: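 Stable CMV-LacZ C2C12 clone; six-point curve 0.5–40 μM; duplicates.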

The test system of assay [2] is α7 integrin (LacZ reporter in α7+/LacZ myotubes). The assay is described as follows: Myotube α7 integrin FDG assay (Burkin assay in myotubes, 96-well). To be noted: for Burkin Assay in Myotubes, value relative to DMSO: SU9516 analogs, 96-well, N=3-6.
For assay [3], the system named is β-galactosidase in CMV-LacZ C2C12 myotubes. The assay is described as follows: CMV-LacZ secondary screen in C2C12 myotubes (β-Gal stabilizing assay). To be noted: for CMV-LACZ in Myotubes, value relative to DMSO: SU9516 analogs, C2C12 CMV-LacZ, N=2; for CMV-LACZ in Myotubes, signal relative to DMSO: C2C12 CMV-LacZ myotubes, fold relative to DMSO. In outline: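 β-gal stabilization was measured in C2C12 myoblasts or myotubes stably transfected with a CMV-driven LacZ construct, using the FDG β-gal assay. Compounds were tested in dose-response at 0.5, 1, 5, 10, 20 and 40 μM, with two replicates per point.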

Assay [4] deals with α7 integrin (LacZ reporter in α7βgal+/− myoblasts). The assay is described as follows: Myoblast α7+/LacZ integrin FDG assay (Burkin assay in myoblasts, 96-well). The following applies: 96-well; for Burkin Assay in Myoblasts, value relative to DMSO: SU9516 analogs, N=3-6; for Burkin Assay in Myoblasts, signal relative to DMSO: α7+/LacZ myoblasts.

Turning to `O=C1Nc2ccccc2/C1=C\c1cccn1-c1ccc(OC(F)(F)F)cc1` [MLS000546982-01], the “CMV-LACZ in Myoblasts, value relative to DMSO” value is listed as 1.0877 in assay [1] (0.5 uM); 1.2640 in assay [1] (1 uM); 0.9273 in assay [1] (5 uM); 1.0785 in assay [1] (10 uM); 0.9512 in assay [1] (20 uM); 1.3937 in assay [1] (40 uM). Also, the “Burkin Assay in Myotubes, value relative to DMSO” value in assay [2] (0.5 uM) was found to be 1.048; in assay [2] (1 uM), 1.038; in assay [2] (5 uM) it was 1.145; in assay [2] (10 uM) it was 0.9962; in assay [2] (20 uM), 0.8556; in assay [2] (40 uM), 0.7111. Also, the “CMV-LACZ in Myotubes, value relative to DMSO” value in assay [3] (0.5 uM) turned out to be 1.0438; in assay [3] (1 uM), 0.8467; in assay [3] (5 uM) it was 1.0159; in assay [3] (10 uM), 1.1265; in assay [3] (20 uM), 1.0160; in assay [3] (40 uM), 1.3290. Besides, the “Burkin Assay in Myoblasts, value relative to DMSO” value in assay [4] (0.5 uM) was found to be 0.8799; in assay [4] (1 uM), 1.155; in assay [4] (5 uM), 1.272; in assay [4] (10 uM) it was 1.078; in assay [4] (20 uM) it was 1.053; in assay [4] (40 uM) it was 0.8883.
Turning to `Cc1ccc(Cn2nnc3c(=O)[nH]c(C4CCCN(C(=O)c5ccco5)C4)nc32)cc1` (stereo not drawn) [MLS001217212-01], the “CMV-LACZ in Myoblasts (β-galactosidase activity relative to DMSO)” value in assay [1] (0.5 uM) was found to be 1.1804; in assay [1] (1 uM) it was 0.9179; in assay [1] (5 uM) it was 1.0711; in assay [1] (10 uM) it was 1.0626; in assay [1] (20 uM) it was 1.1137; in assay [1] (40 uM) it was 0.9459. Further, the “Burkin Assay in Myotubes, α7 integrin LacZ reporter signal relative to DMSO” value in assay [2] (0.5 uM) amounted to 0.8233; in assay [2] (1 uM), 0.8386; in assay [2] (5 uM), 0.8831; in assay [2] (10 uM) it was 0.8772; in assay [2] (20 uM), 0.7663; in assay [2] (40 uM), 0.7366. Also, the “CMV-LACZ in Myotubes, signal relative to DMSO” value in assay [3] (0.5 uM) is reported as 1.0190; in assay [3] (1 uM), 0.9610; in assay [3] (5 uM), 0.9795; in assay [3] (10 uM), 1.0832; in assay [3] (20 uM), 1.1842; in assay [3] (40 uM), 1.0105. In addition, the “Burkin Assay in Myoblasts, signal relative to DMSO” value in assay [4] (0.5 uM) was found to be 1.095; in assay [4] (1 uM) it was 1.178; in assay [4] (5 uM), 0.9785; in assay [4] (10 uM), 0.9933; in assay [4] (20 uM), 0.9967; in assay [4] (40 uM) it was 1.064.
Turning to `Cc1cccc(Sc2nc(-c3ccccc3)ccc2C#N)c1` [MLS000325736-01], the “CMV-LACZ in Myoblasts (β-galactosidase activity relative to DMSO)” value in assay [1] (0.5 uM) was found to be 0.7862; in assay [1] (1 uM), 0.9135; in assay [1] (5 uM) it was 0.9758; in assay [1] (10 uM) it was 1.0696; in assay [1] (20 uM), 1.0111; in assay [1] (40 uM), 1.0537. For the same compound, the “Burkin Assay in Myotubes, α7 integrin LacZ reporter signal relative to DMSO” value in assay [2] (0.5 uM) turned out to be 0.9135; in assay [2] (1 uM), 0.8017; in assay [2] (5 uM), 1.027; in assay [2] (10 uM), 1.168; in assay [2] (20 uM), 0.6582; in assay [2] (40 uM) it was 0.6972. In addition, the “CMV-LACZ in Myotubes, signal relative to DMSO” value in assay [3] (0.5 uM) is 0.9263; in assay [3] (1 uM), 0.8968; in assay [3] (5 uM), 0.9630; in assay [3] (10 uM), 0.9324; in assay [3] (20 uM), 0.8244; in assay [3] (40 uM) it was 0.9889. The “Burkin Assay in Myoblasts, signal relative to DMSO” value amounted to 0.7757 in assay [4] (0.5 uM); 0.7875 in assay [4] (1 uM); 1.423 in assay [4] (5 uM); 1.17 in assay [4] (10 uM); 0.912 in assay [4] (20 uM); 0.8854 in assay [4] (40 uM).
Turning to `CC1CCN(C(CNS(=O)(=O)c2ccccc2)c2ccccc2)CC1` (stereo not drawn) [MLS002171615-01], the “CMV-LACZ in Myoblasts (β-galactosidase activity relative to DMSO)” value in assay [1] (0.5 uM) is on record as 1.0498; in assay [1] (1 uM), 1.3505; in assay [1] (5 uM), 0.9273; in assay [1] (10 uM), 0.9905; in assay [1] (20 uM) it was 1.2159; in assay [1] (40 uM) it was 0.6726. The “Burkin Assay in Myotubes, α7 integrin LacZ reporter signal relative to DMSO” value was 1.107 in assay [2] (0.5 uM); 1.17 in assay [2] (1 uM); 0.9709 in assay [2] (5 uM); 0.9947 in assay [2] (10 uM); 0.8432 in assay [2] (20 uM); 0.8303 in assay [2] (40 uM). For the same compound, the “CMV-LACZ in Myotubes, signal relative to DMSO” value is given as 0.9863 in assay [3] (0.5 uM); 0.7874 in assay [3] (1 uM); 0.9989 in assay [3] (5 uM); 0.9582 in assay [3] (10 uM); 1.0111 in assay [3] (20 uM); 1.0711 in assay [3] (40 uM). Moreover, the “Burkin Assay in Myoblasts, signal relative to DMSO” value is reported as 1.052 in assay [4] (0.5 uM); 0.9407 in assay [4] (1 uM); 0.9747 in assay [4] (5 uM); 0.8859 in assay [4] (10 uM); 0.709 in assay [4] (20 uM); 0.6178 in assay [4] (40 uM).
On to `C/C(=N\NC(=O)c1cc(C)oc1C)c1ccc2ccccc2c1` [MLS000912258-01], for which the “CMV-LACZ in Myoblasts (β-galactosidase activity relative to DMSO)” value in assay [1] (0.5 uM) is reported as 1.1073; in assay [1] (1 uM) it was 1.1693; in assay [1] (5 uM), 0.9071; in assay [1] (10 uM), 1.0171; in assay [1] (20 uM), 1.1074; in assay [1] (40 uM), 0.8621. The “Burkin Assay in Myotubes, α7 integrin LacZ reporter signal relative to DMSO” value is 0.9264 in assay [2] (0.5 uM); 0.8571 in assay [2] (1 uM); 1.144 in assay [2] (5 uM); 0.9631 in assay [2] (10 uM); 0.877 in assay [2] (20 uM); 0.7193 in assay [2] (40 uM). Moreover, the “CMV-LACZ in Myotubes, signal relative to DMSO” value came out at 0.9743 in assay [3] (0.5 uM); 0.9162 in assay [3] (1 uM); 1.1251 in assay [3] (5 uM); 1.2253 in assay [3] (10 uM); 1.0760 in assay [3] (20 uM); 1.0350 in assay [3] (40 uM). The “Burkin Assay in Myoblasts, signal relative to DMSO” value in assay [4] (0.5 uM) came out at 0.8436; in assay [4] (1 uM), 0.9089; in assay [4] (5 uM), 1.2722; in assay [4] (10 uM), 0.8425; in assay [4] (20 uM) it was 0.6351; in assay [4] (40 uM), 0.3725.

Values taken from US9980943B2, “Methods of treating muscular dystrophy” (BOARD OF REGENTS OF THE NEVADA SYSTEM OF HIGHER EDUCATION, …, priority 2013, dated 2018).
